Assay results reported in PubChem BioAssay (NCI).
“And” between values parts separate entries of the source, which are not always exact repeats. Identical values can stand only once.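 Five compound concentrations were applied to cells in 96-well plates for 48 hours; endpoints were derived by simple linear interpolation of the resulting dose-response curve. GI50 = concentration required for 50% inhibition of growth. The concentration for full growth arrest is given as TGI.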

How the values were obtained:
Assay in all cases: inhibition of tumour cell growth, NCI panel, 48 h; in the data active = GI50 below about 0.43 µM; inactive = the rest
[1] = system: SR leukemia
[2] = system: KM12 colon
[3] = system: M14 melanoma
[4] = system: A549 NSCLC
[5] = system: SNB-75 CNS
[6] = system: MOLT-4 leukemia
[7] = system: K-562 leukemia
[8] = system: SK-MEL-5 melanoma
[9] = system: HCT-15 colon
[10] = system: PC-3 prostate

CNC=O.[O]=[Ge].[O]=[Ge].[O]=[Ge].[O]=[Ge][OH].[O]=[Ge][OH]
> 100 µM: TGI [1] | TGI [2] | TGI [3] | TGI [4] | TGI [5] | TGI [6] | TGI [7] | TGI [8] | TGI [9]

CSc1ccc(/C=C2/C[N+](C)(C)C/C(=C/c3ccc(SC)cc3)C2=O)cc1
28.8 µM: TGI [3]
> 100 µM: TGI [4] | TGI [7] | TGI [9]
67.4 µM: TGI [6]
15.9 µM: TGI [2]
71.7 µM: TGI [1]
62.4 µM: TGI [5]

COC(=O)C1=C(c2ccc3c(c2)OCO3)O[C@H](c2ccc3c(c2)OCO3)[C@H]1COC(C)=O
75.2 µM: TGI [8]
> 100 µM: TGI [1] | TGI [2] | TGI [3] | TGI [4] | TGI [5] | TGI [6] | TGI [7] | TGI [9]

CN(C)C(=S)/N=c1\ss/c(=N\C(=S)N(C)C)n1-c1ccc2c(c1)OCO2
> 100 µM: TGI [1] | TGI [2] | TGI [3] | TGI [4] | TGI [5] | TGI [7] | TGI [8] | TGI [9]

Cc1cccc(N2C(=O)C(Cl)=C(Cl)C2=O)c1
79.7 µM: TGI [1]
> 75.8 µM: TGI [6]
> 58.4 µM: TGI [9]
> 100 µM: TGI [2] | TGI [3] | TGI [4] | TGI [5] | TGI [8]
> 83.2 µM: TGI [7]

O=C(/C=C/c1ccccc1Cl)c1ccccc1Cl
61.5 µM: TGI [4]
47.2 µM: TGI [3]
60 µM: TGI [6]
47.7 µM: TGI [7]
74.9 µM: TGI [5]
28 µM: TGI [9]
99.1 µM: TGI [8]
29.3 µM: TGI [2]

CSc1nc(NC2OC(COC(C)=O)C(OC(C)=O)C(OC(C)=O)C2OC(C)=O)c2c(OC(C)=O)c(C)c(=O)oc2n1 (stereo not given)
> 100 µM: TGI [2] | TGI [3] | TGI [4] | TGI [5] | TGI [6] | TGI [7] | TGI [8] | TGI [9]

CCc1cccc(C)c1NC(C)=O
> 100 µM: TGI [2] | TGI [3] | TGI [4] | TGI [5] | TGI [6] | TGI [7] | TGI [8] | TGI [9]

Cc1cccc(C(C)(C)C)c1NC(=O)CCc1n[nH]c(=S)o1
49 µM: TGI [9]
> 100 µM: TGI [2] | TGI [3] | TGI [4] | TGI [5] | TGI [6] | TGI [7] | TGI [8]

O=S(O)CCCCSSCCCCSSCCCCS(=O)O
> 100 µM: TGI [2] | TGI [4] | TGI [5] | TGI [7] | TGI [9]
43.9 µM: TGI [6]
24.3 µM: TGI [8]
26.5 µM: TGI [3]

O=C(NC1CCCCCC1)C1C(=O)N(C2CCCCCC2)C(=O)/C1=N\O (stereo not given)
57.3 µM: TGI [6]
> 100 µM: TGI [2] | TGI [3] | TGI [4] | TGI [7] | TGI [8] | TGI [9]
54 µM: TGI [1]
91.9 µM: TGI [5]

C#CC[C@]12CC(=O)CC[C@H]1CC(=O)C2
> 100 µM: TGI [1] | TGI [2] | TGI [3] | TGI [4] | TGI [5] | TGI [6] | TGI [7] | TGI [8] | TGI [9]

COc1cc2c3c(n(CCCCl)c(=O)c2cc1OC)-c1ccccc1C3=O
96.6 µM: TGI [6]
inactive: GI50 [2] > 100 µM | GI50 [3] 5.96 µM | GI50 [4] > 100 µM | GI50 [6] 2.18 µM | GI50 [7] > 100 µM | GI50 [8] 21.9 µM | GI50 [10] > 100 µM | GI50 [9] > 100 µM
> 100 µM: TGI [2] | TGI [3] | TGI [4] | TGI [7] | TGI [8] | TGI [10] | TGI [9]

COc1cc(-c2c(C#N)c(N)n3c(nc4ccccc43)c2C#N)cc(Br)c1OC
9.98 µM: TGI [5]
> 100 µM: TGI [3] | TGI [6] | TGI [7] | TGI [8] | TGI [10] | TGI [9]
inactive: GI50 [3] > 100 µM | GI50 [5] 2.18 µM | GI50 [6] > 100 µM | GI50 [7] > 100 µM | GI50 [8] 3.3 µM | GI50 [10] 4.4 µM | GI50 [9] > 100 µM

COC(=O)c1cc2c(c(C(=O)OC)c1O)C(=O)C=CC2=O
> 21.5 µM: TGI [6]
> 9.1 µM and 31.8 µM: TGI [5]
> 55.1 µM: TGI [8]
> 49.4 µM: TGI [9]
> 66.9 µM: TGI [3]
> 22 µM: TGI [1]
inactive: GI50 [2] > 9.1 µM | GI50 [3] > 9.1 µM | GI50 [4] > 9.1 µM | GI50 [8] > 9.1 µM | GI50 [9] > 9.1 µM
> 22.7 µM: TGI [7]
> 58.3 µM: TGI [2] | TGI [4]

CCCCNC(=O)NS(=O)(=O)c1ccc(N2N=C(c3ccc(C)cc3C)CC2c2ccc(N(C)C)cc2)cc1 (stereo not given)
5.42 µM: TGI [8]
inactive: GI50 [2] 3.72 µM | GI50 [3] 4.06 µM | GI50 [4] 3.2 µM | GI50 [5] 3.81 µM | GI50 [6] 3.61 µM | GI50 [7] 3.58 µM | GI50 [8] 2.22 µM | GI50 [10] 3.34 µM | GI50 [9] 3.09 µM
> 100 µM: TGI [2] | TGI [3] | TGI [4] | TGI [5] | TGI [6] | TGI [7] | TGI [10] | TGI [9]

CC(=O)SCCC1c2[nH]c3ccccc3c2CCN1O (stereo not given)
86.4 µM: TGI [5]
> 100 µM: TGI [2] | TGI [3] | TGI [4] | TGI [6] | TGI [7] | TGI [8] | TGI [9]

Cc1cc(C)cc(Nc2cc(C)nc3nc(C(F)(F)F)nn23)c1
> 100 µM: TGI [1] | TGI [2] | TGI [3] | TGI [5] | TGI [6] | TGI [8] | TGI [10] | TGI [9]
inactive: GI50 [1] > 100 µM | GI50 [2] > 100 µM | GI50 [3] > 100 µM | GI50 [5] 25.2 µM | GI50 [6] > 100 µM | GI50 [8] > 100 µM | GI50 [10] > 100 µM | GI50 [9] > 100 µM

COc1cccc(N=Cc2c3ccccc3c(=O)n3c2oc2ccccc23)c1
inactive: GI50 [2] 3.78 µM | GI50 [3] 12.2 µM | GI50 [4] 4.84 µM | GI50 [5] 54.8 µM | GI50 [6] 2.66 µM | GI50 [7] 2.09 µM | GI50 [8] 17.5 µM | GI50 [10] 3.81 µM | GI50 [9] 14.4 µM
23.7 µM: TGI [4]
6 µM: TGI [6]
> 100 µM: TGI [3] | TGI [5] | TGI [9]
37.1 µM: TGI [8]
42.8 µM: TGI [2]
39.6 µM: TGI [10]
6.05 µM: TGI [7]
